Test results as given in publication PMC12080252, “Daphnia magna as an Alternative Model for (Simultaneous) Bioaccumulation and Chronic Toxicity Assessment—Controlled Exposure Study Indicates High Hazard of Heterocyclic PAHs” (Environmental Science & Technology, 2025).
Several values for one entry are separate records, joined by “and”; a condition that tells them apart may be missing. Identical values can stand only once. Like-named read-outs stand apart in the source and are kept apart here.

Tests used:
[1] = Table 1; EPA Comptox where available, otherwise EPISuite MPBPVP v1.43 prediction; cited from earlier work
[2] = Bioaccumulation test (growth, uptake, depuration; adapted from OECD 305) with passive dosing; assay type: in vivo, Daphnia magna; conditions: whole body (homogenate, wet weight); for concentration at 120 h: Daphnia magna, concentration in animal body at end of uptake phase (t = 120 h), read-out: Body burden
Protocol: (§1) Bioaccumulation tests with D. magna were adapted from OECD guideline 305 (for fish).[27] Each compound was tested using 110 animals: 10 for controls and 100 for chemical exposure. The animals, aged 10 days to limit growth dilution and provide sufficient tissue for analysis, were exposed to a single subtoxic concentration of each chemical. The test included three phases: (i) growth, (ii) uptake, and (iii) depuration. A combined chronic toxicity and bioaccumulation test was also conducted in a minimized version (section 2.6).
(§2) Ten days before exposure, 110 juvenile daphnids (<24 h old) were collected from the stock culture and grown in M4 medium. Due to the large number of animals required for this test, the volume of media and amount of food provided to the Daphnia were reduced for experimental feasibility. This was achieved by maintaining a denser population (20 mL medium/daphnid), as well as less food (D. subspicatus equivalent to 0.1 mg C/daphnid/day) compared to the stock culture yet still within the limits allowed by OECD 211. Other dietary supplements (fish food and spirulina) and physical conditions (temperature, light/dark cycle) were the same as the stock culture.
(§3) Before exposure started, 2 L of M4 medium containing D. subspicatus at a density sufficient for 100 daphnids for 5 days (25 mg C L^–1) was dosed with the test substance by shaking with 24 PDMS disks for 72 h. For controls (10 animals), 200 mL of M4 medium containing D. subspicatus ([…]) was equilibrated with 2 disks loaded with pure methanol. Immediately before the start of exposure phase, 10-day old daphnids were transferred to fresh medium for 1 h to clean their guts. Thereafter, 10 control daphnids were placed in 200 mL of pre-equilibrated clean medium with 2 clean PDMS disks, while 100 animals (treatment group) were divided into two beakers, each with 50 animals, 1 L of predosed exposure medium, and 12 loaded disks to begin the 5-day uptake phase.
(§4) Neonates were discarded daily, and animals were sampled at 24 h intervals over 120 h (5 time points, 2 replicates of 5 animals each). Sampled daphnids were transferred to clean medium for 15 min to remove chemicals present on animal surface, dried with lint-free tissue and weighed to determine wet weight. Finally, 5 animals of known mass were combined in each vial and stored at −20 °C until extraction. As passive dosing maintains constant concentrations,[1] medium samples for analysis (with and without biomass) were only taken at the end of the uptake phase.
(§5) 50 animals were first transferred to fresh medium for 15 min to remove exposure solution from their surface, and then placed in a new clean medium for the depuration phase. Animals were sampled at 4 time points (2 replicates of 5 animals each as in the uptake phase) over 69 to 96 h. After sampling, the remaining animals were transferred to fresh medium, and the old medium was collected for analysis. Control animals and their medium were analyzed at the end of both the uptake and depuration phases (5 animals each).
(§6) For quantification of body burdens, 5 daphnids were thawed, homogenized in 5 mL Milli-Q water (IKA T-25 digital Ultra-TURRAX) and extracted twice with 2 mL of hexane. The extracts were combined, dried with Na2SO4, concentrated under a nitrogen stream, and spiked with internal standard.
(§7) The depuration rate constant (k2) was derived by plotting the natural logarithm of CD against time ([h]), with the slope giving k2 (Figure S3).[27] The growth rate constant (kg) was determined from the slope of the regression line in the plot of ln (D. magna wet weight) versus time, and the growth-corrected depuration rate constant (k2g) was calculated using eq 4. [drawing 4] 4
(§8) From k2, the optimal uptake and depuration durations to reach 50% and 95% steady-state were estimated using eqs 5 and 6. [drawing 5] 5 [drawing 6] 6
(§9) The bioaccumulation factor (BAF*) was calculated, even though steady-state was not reached. […]

Daphnia magna = experiment: as above; assay type: in vivo; conditions: for log BAF*L5%: 5-day uptake, steady-state not reached, normalized to 5% lipid assuming 1.5% lipid in daphnids, eq 8; for effects on growth (wet weight) in bioaccumulation test: BCRB 21.6, BNF 4.5, BNT 4.3, DNF 0.1 μg L^–1, vs controls, p < 0.05; for log BCFL5% (BAF*L5%) / log k2 (growth-dilution corrected, k2g): Table S7, this study; for k2g (growth dilution corrected depuration rate constant): eq 4; for t95 (time to reach 95% steady-state): estimated from k2, eq 6; for k2 (depuration rate constant): slope of ln CD vs time
Protocol: as §1, §2, §3, §4, §5, §6, §7, §8, §9

D. magna = experiment: PNEC and risk quotient estimation; set-up: species or system Daphnia magna; conditions: environmental concentration of surrogate (CRB, DBF, DBT) / PNEC
Description: To ensure a precautionary approach, an AF of 100 was applied, which accounts for interspecies variability and uncertainties in extrapolating laboratory findings to real-world conditions.
Environmental concentration (EC) data are obtained from A CRB, B DBF, and C DBT by choosing the highest
concentration that remains below the solubility limit of the respective NSO-PAH, as described in Reference 24.

[3] = Partitioning between methanolic loading solution and aqueous medium (passive dosing); assay type: physicochemical; conditions: methanolic loading solution vs M4 medium at equilibrium via PDMS disk
Protocol: Polydimethylsiloxane (PDMS) passive dosing disks, each weighing 2 g with a surface area of 19.6 cm^2, were prepared using SYLGARD 184 silicone elastomer kit and cleaned before use. Details of the procedure are given in Section S3 (SI file). PDMS disks were loaded in methanolic solution or suspension of the test compounds (10 mL solution/disk) with constant shaking for 72 h, wiped with a lint-free tissue, and washed with water for 30 min four times to remove methanol.
The time required to reach equilibrium between the PDMS disk and the aqueous medium was determined by conducting 72-h kinetic experiments. Chemicals were dosed into M4 medium in 250 mL Schott bottles (in triplicates) at a ratio of 1 disk/100 mL M4 medium using disks loaded with methanolic solution of a single test substance. For the controls, the disks were loaded with pure methanol. While shaking the bottles at room temperature, five samples were taken at different time points over 72 h and the equilibration time was determined.
Passive dosing enabled successful quantification of exposure concentrations after centrifugation of algal biomass (CW), closely matching freely dissolved concentrations (Cfree) calculated from partition coefficients between methanol and the medium (KMeOH:medium; see Figure S12 and section S6 for details).
Table S5 Partition coefficients between the methanolic loading solutions (CMeOH, t=0, nominal concentration
in methanol at t=0) and the measured equilibrium concentrations of the aqueous medium (Cmedium, eq).
Compound CMeOH, t=0 Measured KMeOH:medium log log KMeOH:medium Calculated
[mg L-1] Cmedium, eq KMeOH:medium (mean ± SD) Cmedium, eq
* The “calculated CMedium, eq” were reported using the average KMeoH:medium and CMeOH, t=0. […]

[4] = Table S7, this study, read-out: half-life (converted)
[5] = t50 (time to reach 50% steady-state / depuration half-life), estimated from k2, eq 5

Compound | VP (vapor pressure) [1] | concentration at 120 h [2] | half-life [2, 4] | half-life [2, 5] | log BAF*L5% (Daphnia magna) | effects on growth (wet weight) in bioaccumulation test (Daphnia magna) | log BCFL5% (BAF*L5%) (Daphnia magna) | log k2 (growth-dilution corrected, k2g) (Daphnia magna) | k2g (growth dilution corrected depuration rate constant) (Daphnia magna) | t95 (time to reach 95% steady-state) (Daphnia magna) | k2 (depuration rate constant) (Daphnia magna) | RQ (EC/PNEC) (D. magna) | log KMeOH:medium (mean ± SD) [3]
c1ccc2c(c1)ccc1oc3ccccc3c12 [BNF, benzo[b]naphtho[1,2-d]furan] | 3.36x10^-6 mm Hg | 2580 ng/g | 27.7 h | 28 h | 3.28±0.31 L kg^-1 lipid | statistically significant effects on growth | 3.28 | -1.66 h-1 | 0.022 h⁻¹ | 120 h | 0.025 h⁻¹ | 21111 | 5.26±0.06
c1ccc2c(c1)ccc1sc3ccccc3c12 [BNT, benzo[b]naphtho[1,2-d]thiophene] | 8.97x10^-7 mm Hg | 29400 ng/g | 16.5 h | 17 h | 4.36 L kg^-1 lipid and 4.36±0.43 L kg^-1 lipid | No inhibitory growth effects | 4.36 | -1.39 h-1 | 0.040 h⁻¹ | 71 h | 0.042 h⁻¹ | 3333 | 5.46±0.12
c1ccc2c(c1)ccc1oc3ccc4ccccc4c3c12 [DNF, dinaphtho[2,1-b:1′,2′-d]furan] | 2.15x10^-8 mm Hg | 176 ng/g | 53.7 h | 54 h | 3.77 L kg^-1 lipid and 3.77±0.08 L kg^-1 lipid | No inhibitory growth effects | 3.77 | -1.98 h-1 | 0.0105 h⁻¹ | 232 h | 0.0129 h⁻¹ | – | 5.98±0.14
c1ccc2c(c1)ccc1[nH]c3ccccc3c12 [BCRB, 7H-benzo[c]carbazole] | 4.43x10^-8 mm Hg | 25600 ng/g | 6.23 h | 6 h | 3.60±0.09 L kg^-1 lipid | statistically significant effects on growth | 3.6 | -0.96 h-1 | 0.109 h⁻¹ | 27 h | 0.111 h⁻¹ | 4000 | 4.12±0.06
